Data on 16 compounds can be found in patent publication US20240190880A1 (THE REGENTS OF THE UNIVERSITY OF MICHIGAN, priority 2021, published 2024).

SMILES strings stand for the structures.

A word on the DC50: it is the midpoint of the concentration-degradation curve.

The target in the first test is T1, ER (Homo sapiens, UniProt P03372).
T1 construct: host or cells: T47D and MCF7 human breast cancer cells
T1 sequence (P03372 1-595): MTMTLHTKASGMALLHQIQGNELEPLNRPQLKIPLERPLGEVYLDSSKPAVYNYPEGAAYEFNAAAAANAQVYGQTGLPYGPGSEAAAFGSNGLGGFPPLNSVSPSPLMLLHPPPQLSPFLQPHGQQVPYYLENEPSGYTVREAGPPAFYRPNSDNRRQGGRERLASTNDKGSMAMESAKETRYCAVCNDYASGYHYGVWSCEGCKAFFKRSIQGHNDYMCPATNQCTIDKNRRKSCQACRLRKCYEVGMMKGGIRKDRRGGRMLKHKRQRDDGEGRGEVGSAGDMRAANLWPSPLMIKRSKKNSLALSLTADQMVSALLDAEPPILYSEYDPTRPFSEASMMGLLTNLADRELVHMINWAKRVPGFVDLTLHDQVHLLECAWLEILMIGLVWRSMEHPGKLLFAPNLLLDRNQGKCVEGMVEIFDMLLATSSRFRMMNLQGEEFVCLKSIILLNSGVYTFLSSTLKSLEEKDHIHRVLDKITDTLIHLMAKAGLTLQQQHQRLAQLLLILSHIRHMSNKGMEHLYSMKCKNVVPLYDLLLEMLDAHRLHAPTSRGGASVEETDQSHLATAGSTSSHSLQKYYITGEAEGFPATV
The experiment in a line: ER degradation activity, in-cell western blot analysis in T47D cells. The format is cell-based. Particulars: 16 hours, Table A does not say which cell line (T47D or MCF7), read-out: Potency (DC50). In short, it runs like this: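 Cells were seeded overnight, exposed to diluted compounds for 16 hours, then stained with primary antibodies and with infrared-labelled secondary antibodies (1:1000, 1 h RT). Plates were scanned on a CLX reader, and ER levels were normalised to DMSO-treated wells.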
Consider `C[C@@H]1Cc2c([nH]c3ccccc23)[C@@H](c2c(F)cc(-c3ccc(C(=O)N4CCC(N5Cc6cc7c(cc6C5)C(=O)N(C5CCC(=O)NC5=O)C7=O)CC4)cn3)cc2F)N1CC(F)F` (stereo partly drawn) [E 343, 6-(1-(6-(4-((1R,3R)-2-(2,2-difluoroethyl)-3-methyl-2,3,4,9-tetrahydro-1H-pyrido[3,4-b]indol-1-yl)-3,5-difluorophenyl)nicotinoyl)piperidin-4-yl)-2-(2,6-dioxopiperidin-3-yl)-6,7-dihydropyrrolo[3,4-f]isoindole-1,3(2H,5H)-dione], for which the DC50 is below 10 nM.

In the case of `O=C1CCC(N2C(=O)c3cc4c(cc3C2=O)CN(CC2(F)CN(C(=O)C3CCN(c5ccc([C@@H]6c7ccc(O)cc7CC[C@@H]6c6ccccc6)cc5)CC3)C2)C4)C(=O)N1` (stereo partly drawn) [E 207, 2-(2,6-dioxopiperidin-3-yl)-6-((3-fluoro-1-(1-(4-((1R,2S)-6-hydroxy-2-phenyl-1,2,3,4-tetrahydronaphthalen-1-yl)phenyl)piperidine-4-carbonyl)azetidin-3-yl)methyl)-6,7-dihydropyrrolo[3,4-f]isoindole-1,3(2H,5H)-dione], the DC50 was above 100 nM.

`C[C@@H]1Cc2c([nH]c3ccccc23)[C@@H](c2c(F)cc(C3CCN(C(=O)C4CCC(N5Cc6cc7c(cc6C5)C(=O)N(C5CCC(=O)NC5=O)C7=O)CC4)CC3)cc2F)N1CC(F)F` (stereo partly drawn) [E 348, 6-(4-(4-(4-((1R,3R)-2-(2,2-difluoroethyl)-3-methyl-2,3,4,9-tetrahydro-1H-pyrido[3,4-b]indol-1-yl)-3,5-difluorophenyl)piperidine-1-carbonyl)cyclohexyl)-2-(2,6-dioxopiperidin-3-yl)-6,7-dihydropyrrolo[3,4-f]isoindole-1,3(2H,5H)-dione]: the DC50 fell in the range of 10 to 100 nM.

With `C[C@@H]1Cc2c([nH]c3ccccc23)[C@@H](c2c(F)cc(N3CCC(CN4CC(N5Cc6cc7c(cc6C5)C(=O)N(C5CCC(=O)NC5=O)C7=O)C4)CC3)cc2F)N1CC(F)F` (stereo partly drawn) [E 50, 6-(1-((1-(4-((1R,3R)-2-(2,2-difluoroethyl)-3-methyl-2,3,4,9-tetrahydro-1H-pyrido[3,4-b]indol-1-yl)-3,5-difluorophenyl)piperidin-4-yl)methyl)azetidin-3-yl)-2-(2,6-dioxopiperidin-3-yl)-6,7-dihydropyrrolo[3,4-f]isoindole-1,3(2H,5H)-dione], the DC50 was above 100 nM.

In the case of `O=C1CCC(N2C(=O)c3cc4c(cc3C2=O)CN(CC(=O)N2CCC3(CC2)CCN(c2ccc([C@@H]5c6ccc(O)cc6CC[C@@H]5c5ccccc5)cc2)C3)C4)C(=O)N1` (mixture of isomers) [E 139, Rac-2-(2,6-dioxopiperidin-3-yl)-6-(2-(2-(4-((1R,2S)-6-hydroxy-2-phenyl-1,2,3,4-tetrahydronaphthalen-1-yl)phenyl)-2,8-diazaspiro[4.5]decan-8-yl)-2-oxoethyl)-6,7-dihydropyrrolo[3,4-f]isoindole-1,3(2H,5H)-dione], the half-maximal degradation concentration (DC50) is 10 to 100 nM.

With `O=C1CCC(N2C(=O)c3cc4c(cc3C2=O)CN(C(=O)CN2CC3(CCN(c5ccc([C@@H]6c7ccc(O)cc7CC[C@@H]6c6ccccc6)cc5)CC3)C2)CCC4)C(=O)N1` (mixture of isomers) [E 168, rac-2-(2,6-dioxopiperidin-3-yl)-6-(2-(7-(4-((1R,2S)-6-hydroxy-2-phenyl-1,2,3,4-tetrahydronaphthalen-1-yl)phenyl)-2,7-diazaspiro[3.5]nonan-2-yl)acetyl)-6,7,8,9-tetrahydroazepino[3,4-f]isoindole-1,3(2H,5H)-dione], the DC50 was above 100 nM.

Regarding `C[C@@H]1Cc2c([nH]c3ccccc23)[C@@H](c2c(F)cc(N3CCC(N4CCC(CC(=O)N5Cc6cc7c(cc6C5)C(=O)N(C5CCC(=O)NC5=O)C7=O)CC4)CC3)cc2F)N1CC(F)F` (stereo partly drawn) [E 93, 6-(2-(1′-(4-((1R,3R)-2-(2,2-difluoroethyl)-3-methyl-2,3,4,9-tetrahydro-1H-pyrido[3,4-b]indol-1-yl)-3,5-difluorophenyl)-[1,4′-bipiperidin]-4-yl)acetyl)-2-(2,6-dioxopiperidin-3-yl)-6,7-dihydropyrrolo[3,4-f]isoindole-1,3(2H,5H)-dione], the DC50 is below 10 nM.

As to `C[C@@H]1Cc2cc(O)ccc2[C@@H](c2c(F)cc(N3CCC4(CC3)CN(CC(=O)N3Cc5cc6c(cc5C3)C(=O)N(C3CCC(=O)NC3=O)C6)C4)cc2F)N1CC(F)F` (stereo partly shown) [E 39], the DC50 is below 10 nM.

Regarding `C[C@@H]1Cc2c([nH]c3ccccc23)[C@H](c2c(F)cc(C(=O)N3CCC4(CCC(CN5Cc6cc7c(cc6C5)C(=O)N(C5CCC(=O)NC5=O)C7=O)CC4)CC3)cc2F)N1CC(F)F` (stereo partly drawn) [E 379, 6-((3-(4-((1S,3R)-2-(2,2-difluoroethyl)-3-methyl-2,3,4,9-tetrahydro-1H-pyrido[3,4-b]indol-1-yl)-3,5-difluorobenzoyl)-3-azaspiro[5.5]undecan-9-yl)methyl)-2-(2,6-dioxopiperidin-3-yl)-6,7-dihydropyrrolo[3,4-f]isoindole-1,3(2H,5H)-dione], the 50% degradation concentration (DC50) was above 100 nM.

On to `O=C1CCC(N2C(=O)c3cc4c(cc3C2=O)CN(C2CCN(CC3(F)CN(c5ccc([C@@H]6c7ccc(O)cc7CC[C@@H]6c6ccccc6)cc5)C3)CC2)C4)C(=O)N1` (stereo partly drawn) [E 285, 2-(2,6-dioxopiperidin-3-yl)-6-(1-((3-fluoro-1-(4-((1R,2S)-6-hydroxy-2-phenyl-1,2,3,4-tetrahydronaphthalen-1-yl)phenyl)azetidin-3-yl)methyl)piperidin-4-yl)-6,7-dihydropyrrolo[3,4-f]isoindole-1,3(2H,5H)-dione], for which the DC50 is above 100 nM.

Take `C[C@@H]1Cc2c([nH]c3ccccc23)[C@@H](c2c(F)cc(N3CC4(CCN4CC(=O)N4Cc5cc6c(cc5C4)C(=O)N(C4CCC(=O)NC4=O)C6=O)C3)cc2F)N1CC(F)F` (stereo partly drawn) [E 60, 6-(2-(6-(4-((1R,3R)-2-(2,2-difluoroethyl)-3-methyl-2,3,4,9-tetrahydro-1H-pyrido[3,4-b]indol-1-yl)-3,5-difluorophenyl)-1,6-diazaspiro[3.3]heptan-1-yl)acetyl)-2-(2,6-dioxopiperidin-3-yl)-6,7-dihydropyrrolo[3,4-f]isoindole-1,3(2H,5H)-dione]: the DC50 was above 100 nM.

On to `O=C1CCC(N2C(=O)c3cc4c(cc3C2=O)CN(Cc2ccc(N3CC(Oc5ccc([C@@H]6c7ccc(O)cc7CC[C@@H]6c6ccccc6)cc5)C3)nc2)C4)C(=O)N1` (stereo partly drawn) [E329, 2-(2,6-dioxopiperidin-3-yl)-6-((6-(3-(4-((1R,2S)-6-hydroxy-2-phenyl-1,2,3,4-tetrahydronaphthalen-1-yl)phenoxy)azetidin-1-yl)pyridin-3-yl)methyl)-6,7-dihydropyrrolo[3,4-f]isoindole-1,3(2H,5H)-dione], for which the DC50 is 10 to 100 nM.

Staying with this test, now noted: compounds 16 hours, Table A does not say whether T47D or MCF7, read-out: Potency (DC50).
For `COc1cc(C2CCC(C(=O)N3CCC(N4Cc5cc6c(cc5C4)C(=O)N(C4CCC(=O)NC4=O)C6=O)CC3)CC2)cnc1[C@@H]1c2[nH]c3ccccc3c2C[C@@H](C)N1CC(F)F` (stereo partly drawn) [E 405, 6-(1-(4-(6-((1S,3R)-2-(2,2-difluoroethyl)-3-methyl-2,3,4,9-tetrahydro-1H-pyrido[3,4-b]indol-1-yl)-5-methoxypyridin-3-yl)cyclohexane-1-carbonyl)piperidin-4-yl)-2-(2,6-dioxopiperidin-3-yl)-6,7-dihydropyrrolo[3,4-f]isoindole-1,3(2H,5H)-dione], the DC50 was above 100 nM.

Turning to `C[C@@H]1Cc2c([nH]c3ccccc23)[C@@H](c2ccc(C3CCC4(CC3)CCN(C(=O)CN3Cc5cc6c(cc5C3)C(=O)N(C3CCC(=O)NC3=O)C6=O)CC4)cc2F)N1CC(F)F` (stereo partly drawn) [E 479, 6-(2-(9-(4-((1R,3R)-2-(2,2-difluoroethyl)-3-methyl-2,3,4,9-tetrahydro-1H-pyrido[3,4-b]indol-1-yl)-3-fluorophenyl)-3-azaspiro[5.5]undecan-3-yl)-2-oxoethyl)-2-(2,6-dioxopiperidin-3-yl)-6,7-dihydropyrrolo[3,4-f]isoindole-1,3(2H,5H)-dione], the half-maximal degradation concentration (DC50) was above 100 nM.

For the compound `O=C1CCC(N2C(=O)c3cc4c(cc3C2=O)CC2(C4)CN(CC3CCN(c4ccc([C@@H]5c6ccc(O)cc6CC[C@@H]5c5ccccc5)cc4)CC3)C2)C(=O)N1` (stereo partly drawn) [E 500, 2′-(2,6-dioxopiperidin-3-yl)-1-((1-(4-((1R,2S)-6-hydroxy-2-phenyl-1,2,3,4-tetrahydronaphthalen-1-yl)phenyl)piperidin-4-yl)methyl)-5′,7′-dihydro-1′H-spiro[azetidine-3,6′-cyclopenta[f]isoindole]-1′,3′(2′H)-dione], the DC50 was above 100 nM.

For `O=C1CCC(N2C(=O)c3cc4c(cc3C2=O)CN(CC(=O)N2CCC3(CC2)CCN(c2ccc([C@H]5c6ccc(O)cc6CC[C@H]5c5ccccc5)cc2)CC3)C4)C(=O)N1` (stereo partly drawn) [E 437, 2-(2,6-dioxopiperidin-3-yl)-6-(2-(9-(4-((1S,2R)-6-hydroxy-2-phenyl-1,2,3,4-tetrahydronaphthalen-1-yl)phenyl)-3,9-diazaspiro[5.5]undecan-3-yl)-2-oxoethyl)-6,7-dihydropyrrolo[3,4-f]isoindole-1,3(2H,5H)-dione], the DC50 was above 100 nM.
